“Also recorded” adds a separate entry of the source.
Legend:
[1] = 1'-Hydroxymidazolam pharmacokinetics after IV or oral midazolam; settings: for Decrease in AUC for 1'-hydroxymidazolam compared to wild type: midazolam 1 mg/kg IV, rifampicin pre-treated
Experimental: On day 4 of the study midazolam (1 mg/kg) was administered by IV injection to animals from groups 1-6 and orally (2 mg/kg) to mice from groups 7-9. Blood samples were collected at 2, 5, 10, 20, 30, 45, 60, 90, 120 and 150 min (serial bleeds) after IV dosing, at 10, 20, 40, 60, 90, 120, 240 and 360 min after the oral dosing, for PK analysis (Table 3).
Total concentrations of 1′-hydroxymidazolam were measured following pre-treatment of blood with B-glucuronidase. The pharmacokinetics of the 1′-hydroxymidazolam after the IV injection of the parent compound are presented on FIG. 1s.

Cyp3a [2] = assay: Oxidation of 7-BQ by liver microsomes
Cyp3a [3] = assay: Oxidation of BFC by liver and intestinal microsomes; type: in vitro ADME, mouse
Cyp3a [4] = assay: Oxidation of DBF by liver and intestinal microsomes
[5] = Experimental: The study consisted of 4 groups with 4 animals per group. […] On day 4 of the study midazolam (1 mg/kg) was administered by IP injection and 10 μL blood samples were collected at 10, 20, 40, 60, 120, 240 and 360 min for PK analysis (Table 1).
Cyp1a1 and Cyp1a2 = assay: Ethoxyresorufin de-ethylation activity (EROD) of liver microsomes; type: in vivo, mouse; settings: both strains
From the text: (B)—Ethoxyresorufin de-ethylation; (C)—methoxyresorufin de-methylation. Data are mean±SD (n=4).
Ethoxyresorufin de-ethylation activity (EROD) was similar in both Cyp3a cluster KO and wild type mouse liver microsomes. EROD is catalysed by both Cyp1a 1 and Cyp1a2 isoforms, with Cyp1a1 making the major contribution. […] There was no difference in methoxyresoryfin de-methylation (MROD) activity between wild type and Cyp3a cluster KO mice. MROD is catalysed predominantly by Cyp1a2.

Cyp2b10 and Cyp2c29 = assay: 16β-Hydroxylation of testosterone by liver microsomes; settings: liver microsomes of both transgenic strains
Cyp3a [6] = assay: 6β-Hydroxylation of testosterone by liver and intestinal microsomes; settings: Cyp3a cluster KO and Cyp3a11 KO

Structure (SMILES): OCc1ncc2n1-c1ccc(Cl)cc1C(c1ccccc1F)=NC2 [1′-hydroxymidazolam]
- Decrease in AUC for 1'-hydroxymidazolam compared to wild type ([1]; Cyp3a11 KO): ~2 times
- Decrease in AUC for 1'-hydroxymidazolam compared to wild type ([1]; Cyp3a cluster KO): ~3 times
- Terminal phase elimination of 1'-hydroxymidazolam compared to other strains ([1]; Cyp3a cluster KO, midazolam IV): slightly slower elimination

Structure (SMILES): c1ccc(COc2ccc3cccnc3c2)cc1 [7-BQ, 7-benzyloxyquinoline]
- Activity towards 7-BQ in Cyp3a cluster KO, level compared to the wild type mice (Cyp3a [2]; conclusion statement): below 20%
- 7-BQ oxidation in Cyp3a cluster KO liver microsomes, % of corresponding C57BL/6J group (Cyp3a [2]; control animals): 18%
- 7-BQ oxidation in Cyp3a cluster KO liver microsomes, % of corresponding C57BL/6J group (Cyp3a [2]; rifampicin treated animals): 6.7%

Structure (SMILES): O=c1cc(C(F)(F)F)c2ccc(OCc3ccccc3)cc2o1 [BFC, 7-benzyloxy-4-trifluoromethylcoumarin]
- BFC activity between liver microsomal samples (Cyp3a [3]; C57BL/6J, Cyp3a cluster KO, Cyp3a11 KO liver microsomes): no difference
- BFC oxidation in intestinal microsomes of transgenic mice (Cyp3a [3]; intestinal microsomes): small but statistically significant increase

Structure (SMILES): O=C(OCc1ccccc1)c1ccccc1-c1c2ccc(=O)cc-2oc2cc(OCc3ccccc3)ccc12 [DBF, dibenzylfluorescein]
- DBF oxidation by liver microsomes compared to wild type (Cyp3a [4]; Cyp3a cluster KO and Cyp3a11 KO): pronounced decrease
- DBF oxidation by intestinal microsomes, wild type vs knockout strains (Cyp3a [4]; intestinal microsomes): no statistically significant difference

Structure (SMILES): Cc1ncc2n1-c1ccc(Cl)cc1C(c1ccccc1F)=NC2 [midazolam]
- Absorption after IP administration ([5]; midazolam 1 mg/kg IP, both mouse strains): fast absorption
- Midazolam AUC / PK, Cyp3a cluster KO compared to wild type ([5]; midazolam 1 mg/kg IP, control (untreated) animals): similar; also recorded: no difference
- Difference in midazolam AUC, Cyp3a cluster KO vs wild type ([5]; rifampicin treated mice): 1.6 times

Structure (SMILES): CO[C@H]1/C=C/O[C@@]2(C)Oc3c(C)c(O)c4c(O)c(c(/C=N/N5CCN(C)CC5)c(O)c4c3C2=O)NC(=O)/C(C)=C\C=C\[C@H](C)[C@H](O)[C@@H](C)[C@@H](O)[C@@H](C)[C@H](OC(C)=O)[C@@H]1C [rifampicin]
- Effect of rifampicin treatment on midazolam elimination ([5]; rifampicin 60 mg/kg 3 daily doses, midazolam 1 mg/kg IP day 4, both strains, higher effect in C57BL/6J): accelerated elimination
- EROD metabolism after rifampicin (Cyp1a1 and Cyp1a2): small induction

Structure (SMILES): C[C@]12CC[C@H]3[C@@H](CCC4=CC(=O)CC[C@@]43C)[C@@H]1CC[C@@H]2O [testosterone]
- 16β-Hydroxylation of testosterone compared to wild type (Cyp2b10 and Cyp2c29): increased
- 6β-hydroxylation of testosterone compared to wild type (Cyp3a [6]): significant decrease
